# Data published in PMC9405973, “Altered Conformational Landscape upon Sensing Guanine Nucleotides in a Disease Mutant of Elongation Factor-like 1 (EFL1) GTPase” (Biomolecules, 2022).
# Biological target: T1, Efl1 wild type in complex with Sdo1 and 60S subunits (Saccharomyces cerevisiae, UniProt P53893)
# T1 construct: made in house; host or cells: Efl1: Saccharomyces cerevisiae; Sdo1: Escherichia coli C41; 60S subunits purified from S. cerevisiae strain JD1370
# T1 sequence (P53893 1-1110): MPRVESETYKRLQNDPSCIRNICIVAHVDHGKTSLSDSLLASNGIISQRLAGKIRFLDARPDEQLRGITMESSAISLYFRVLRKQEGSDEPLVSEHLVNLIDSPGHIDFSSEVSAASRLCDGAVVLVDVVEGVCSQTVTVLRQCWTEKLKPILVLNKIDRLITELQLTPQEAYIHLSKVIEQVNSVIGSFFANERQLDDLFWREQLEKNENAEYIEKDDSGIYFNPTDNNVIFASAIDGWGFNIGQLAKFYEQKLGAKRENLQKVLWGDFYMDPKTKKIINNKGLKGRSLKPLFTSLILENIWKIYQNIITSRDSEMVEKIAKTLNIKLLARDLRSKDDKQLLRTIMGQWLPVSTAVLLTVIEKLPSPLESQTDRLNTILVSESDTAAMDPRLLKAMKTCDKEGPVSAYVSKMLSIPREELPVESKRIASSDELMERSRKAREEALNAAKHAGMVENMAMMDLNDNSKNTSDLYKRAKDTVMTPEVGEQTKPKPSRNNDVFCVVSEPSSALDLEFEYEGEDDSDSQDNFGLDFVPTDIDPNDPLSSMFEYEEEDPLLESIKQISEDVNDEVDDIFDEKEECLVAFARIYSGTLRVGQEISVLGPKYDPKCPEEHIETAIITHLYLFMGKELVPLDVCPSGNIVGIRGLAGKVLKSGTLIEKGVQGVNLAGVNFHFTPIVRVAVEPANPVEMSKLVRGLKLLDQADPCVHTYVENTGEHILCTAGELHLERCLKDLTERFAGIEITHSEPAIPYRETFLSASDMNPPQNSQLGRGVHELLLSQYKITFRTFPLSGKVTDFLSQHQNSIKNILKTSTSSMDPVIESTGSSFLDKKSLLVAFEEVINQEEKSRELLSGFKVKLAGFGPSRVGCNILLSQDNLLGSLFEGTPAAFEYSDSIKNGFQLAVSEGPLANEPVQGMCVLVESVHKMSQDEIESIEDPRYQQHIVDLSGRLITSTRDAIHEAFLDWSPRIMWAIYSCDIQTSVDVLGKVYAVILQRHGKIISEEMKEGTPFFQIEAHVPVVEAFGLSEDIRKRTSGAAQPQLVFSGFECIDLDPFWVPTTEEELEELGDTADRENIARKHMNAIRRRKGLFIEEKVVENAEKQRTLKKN
# T1 sequence (Q07953 1-250 partner): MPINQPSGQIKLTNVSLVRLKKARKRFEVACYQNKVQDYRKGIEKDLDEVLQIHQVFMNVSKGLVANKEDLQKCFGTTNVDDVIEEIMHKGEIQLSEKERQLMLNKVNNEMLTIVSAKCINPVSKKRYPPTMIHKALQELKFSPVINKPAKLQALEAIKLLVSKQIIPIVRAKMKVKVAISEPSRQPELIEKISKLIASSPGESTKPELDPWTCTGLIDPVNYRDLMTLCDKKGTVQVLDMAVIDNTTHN
# Test: Steady state fluorescence binding of mant-GTP to Efl1 wild type in complex with Sdo1 and 60S subunits
# Settings: 25 °C, one-binding-site model; read-out: dissociation constant (Kd)
# Experimental: We measured the binding of different Efl1 constructs present in complex with Sdo1 and 60S subunits to the fluorescence GTP analogue, mant-GTP, by following the increase in the fluorescence signal after excitation at 355 nm. Fluorescence intensities were plotted as a function of increasing nucleotide concentrations, and the dissociation constant (Kd) was calculated by fitting the data to a one-binding-site model (Supplementary Figure S1B).
# Hydrolysis of GTP was measured using the Enzchek Phosphate Assay kit (Molecular Probes) as described by Webb. Standard reactions consisted of 100 µL containing 6 µM of Efl1 R1086Q and Efl1 L910K, 0.3 mM MESG, 1.0 U purine nucleoside phosphorylase (PNP) and the indicated amounts of GTP. […]
# Reactions were initiated and the GTPase was added after 3 min. Time courses were followed by recording the change in absorbance at 360 nm in a Cary 60 UV -Vis spectrophotometer (Agilent Technologies). Background absorbance was recorded prior to the addition of the GTPase and subtracted from the sample signals. The slope of the measured time courses corresponded to the GTP hydrolysis rate. […] Data were analysed by nonlinear regression to the M ichaelis-Menten equation with the program Origin Version 5.0 (OriginLab, Co., Northampton, MA). […]
# Steady state fluorescence measurements […]
# Maximum emission at 440 nm was replotted as a function of nucleotide concentration and analysed
compound,measurement,value
CNc1ccccc1C(=O)O[C@H]1[C@@H](O)[C@H](n2cnc3c(=O)[nH]c(N)nc32)O[C@@H]1COP(=O)(O)OP(=O)(O)OP(=O)(O)O [mant-GTP],Kd,36 µM
